Measured values: patent US12280026B2, “Use of repirinast in the prophylaxis or treatment of renal fibrosis or kidney disease” (ALGERNON PHARMACEUTICALS INC., priority 2018, dated 2025)
“Also recorded” adds a separate entry of the source. Marks after values point to notes of the source that are not given here.

How the values were obtained:
Type in all cases: in vivo
[1] = Example 1: UUO mice, mean body weight change following surgery; details: Example 1, mostly post-surgical day 14, male C57BL/6 mice, PO QD days 1-14, doses of Table 1
Procedure: (§1) Male 9-12 week old C57BL/6 mice of 23-25 grams body weight were used. All mice were acclimated for a minimum of 5 days prior to the start of the study and housed individually in microisolators throughout the study in a 12:12 light-dark cycle on a standard maintenance mouse chow diet (Harlan Teklad 2018) with food and water given ad libitum. Prior to surgery, all mice were weighed for baseline body weight.
(§2) The UUO surgical intervention was performed according to previously described methods known in the art (Le Meur Y et al., Macrophage accumulation at a site of renal inflammation is dependent on the M-CSF/c-fms pathway, J Leukocyte Biol., 72:530-537; 2002).
(§3) All mice were first anesthetized by intraperitoneal injection with a rodent cocktail (ketamine 10 mg/mL and Xyaline 1 mg/mL) in normal saline (10 μL/g body weight). Pedal reflex and movement of the vibrissae were used to determine the state of unconsciousness. A state of unconsciousness was confirmed after a period of about 5 minutes in all animals. All mice were then shaved on the left side of the abdomen. The shaved area was first swabbed with iodine and then swabbed with alcohol. A vertical incision was made through the skin with a #22 scalpel and the skin was then retracted. A further incision of about 2.5 cm was then made through the peritoneum avoiding any major blood vessels. The peritoneum was then retracted and the left kidney was exposed.
(§4) The left kidney was then brought to the surface by hooking the ureter directly beneath the kidney with sterile forceps and gently manipulating the kidney upward. The ureter was ligated at two points directly below the kidney with 5-0 surgical silk with excess suture cut away and discarded post-ligation. The kidney was then gently placed back to its correct anatomical position and the abdomen was lavaged with 1 mL sterile saline to replenish fluid loss. The peritoneum and then skin were sutured with 5-0 Mersilene, and the incision site was gently wiped with iodine. All mice were then placed individually in clean cages that were set on top of a thermal blanket until recovery at about 30-60 minutes later. In some examples, sham surgery was performed as a control by following all steps of the UUO surgical intervention procedure except ligation.
(§5) Following surgery, the mice were divided into 14 individual study groups of 8 mice each and, following post-surgical recovery, administered a once-daily oral treatment for 14 days. The mice in 12 of the 14 study groups (hereafter known as “treatment groups”) had all received the UUO surgical ligation and were treated individually with a distinct pharmacologic compound as set out in Table 1. The mice in 2 of the 14 study groups were treated individually with a pharmaceutically acceptable vehicle with no active ingredient. The pharmaceutically acceptable vehicle in all groups was 0.5% carboxymethyl cellulose (CMC). All mice were sacrificed with CO2 on post-surgical day 15.
(§6) The dose selected for the animal studies was determined by taking the maximum known human daily dose, dividing by the average weight of an adult (˜60-70 kg) to get a human mg/kg dose. […]
Body weight: The body weights were measured on days 1, 2, 5, 8, 10 and 14 using a laboratory balance.
Body weights were measured on post-surgical days 1, 2, 5, 8, 10 and 14 as previously described. The mean body weight change of each study group was calculated using the body weight average of all mice in each study group.

[2] = tested on: C57BL/6 mice with UUO surgical ligation; test: Example 1: UUO mice, renal fibrosis evaluation (Sirius Red histology score); details: Bemithyl 200, Emoxypine 160, Suplatast Tosylate 60, Udenafil 40, Telmisartan 5 mg/kg PO QD
Procedure: as §1, §2, §3, §4, §5, §6
Histopathology: Formalin-fixed kidney cross-section samples were subjected histopathological scoring with Sirius Red staining, and imaged at a magnification of ×20, using standard techniques. All three sections were stained and evaluated. […] The presence of interstitial damage and severity score was assessed according to the following criteria: 0=normal, 1=light, 2=moderate, 3=severe. […]

[3] = tested on: C57BL/6 mice with UUO surgical ligation; test: Example 2: UUO mice, renal fibrosis evaluation (Sirius Red histology score); details: for Level of kidney fibrosis / histology score compared to vehicle or other agents, in words: mg/kg PO QD: Telmisartan 3, Bemithyl 200, Repirinast 30, Telmisartan+Bemithyl 3+200, Telmisartan+Repirinast 3+30, Cenicriviroc 40, Bromantane 40; for Histology Score: Sirius Red, 0=normal, 1=light, 2=moderate, 3=severe, group mean; for Histology Score / Reduction of fibrosis (%) (versus vehicle): UUO, female C57BL/6 mice, PO QD days 1-14; for Reduction of fibrosis (%) (versus vehicle): from histology score
Procedure: In this example, healthy young female C57BL/6 mice were used for the study. At the commencement of the study, mice were between 9-12 weeks of age, weighing 23-25 g. All the mice were obtained from Charles River Laboratories.
The mice were maintained in a controlled environment with a temp 70-72° F., humidity 30-70%, with a photo cycle of 12 hours of light and 12 hours of dark. They were provided with Harlan Teklad 2018 standard maintenance mouse chow diet and drinking water ad libitium.
After five days of acclimatization, the mice were grouped according to their body weight. There were ten groups of ten mice each. Nine groups of ten mice each underwent UUO as described above and the other group of ten mice underwent a sham procedure to serve as a no-surgery control.
Following surgery, the mice were divided into 10 individual study groups of 10 mice each and, following post-surgical recovery, administered a once-daily oral treatment for 14 days. The mice in 8 of the 10 study groups had all received the UUO surgical ligation and were treated individually with a distinct pharmacologic compound as set out in Table 6. The mice in 2 of the 10 study groups were treated individually with a pharmaceutically acceptable vehicle with no active ingredient. The pharmaceutically acceptable vehicle in all groups was 0.5% carboxymethyl cellulose (CMC). All mice were sacrificed with CO2 on post-surgical day 15.
The dose selected for the animal studies was determined by taking the maximum known human daily dose, dividing by the average weight of an adult (˜60-70 kg) to get a human mg/kg dose. That number was multiplied by 12 to convert to a mouse dose based on conventional dosing tables. See Nair and Jacob, J Basic Clin Pharm March 2016-May 2016, 7(2):27-31.
Histopathology: Formalin-fixed kidney cross-section samples were subjected histopathological scoring with Sirius Red staining, and imaged at a magnification of ×20, using standard techniques. All three sections were stained and evaluated. The analysis was performed by a board-certified veterinarian pathologist. The presence of interstitial damage and severity score was assessed according to the following criteria: 0=normal; 1=light; 2=moderate; 3=severe.
The data are presented as the mean obtained from Microsoft Excel or GraphPad Prism version 5.00 for Windows (GraphPad Software, San Diego California USA). Data were analyzed using two-way ANOVA using Bonferroni and Tamhane post-tests. Differences between groups were considered significant at p<0.05.
Renal Fibrosis Evaluation: Renal fibrosis and interstitial damage was evaluated by histochemical staining of renal cross-sections with Sirius Red as previously described. The Histology Score of each study group consisted of the histology score average of all mice in each study group.

[4] = tested on: C57BL/6 mice with UUO surgical ligation; test: Example 1: UUO mice, kidney weight evaluation (ligated vs non-ligated kidney); details: doses of Table 1 (Telmisartan 5 mg/kg)
Procedure: as §1
The UUO surgical intervention was performed according to previously described methods known in the art (Le Meur Y et al., Macrophage accumulation at a site of renal inflammation is dependent on the M-CSF/c-fms pathway, J Leukocyte Biol., 72:530-537; 2002). […]
as §6
Kidney weight: The UUO was then examined in situ to ensure that the surgical ligation ties remained patent. […] Weights of both kidneys were measured using a laboratory balance.
Kidney Weight Evaluation: Kidney weight indicating, which indicates functional and pathological changes in the kidney, was evaluated by measuring the weight of both the ligated (UUO) and non-ligated kidneys as previously described. […]

[5] = mg/kg: Telmisartan 3, Bemithyl 200, Repirinast 30, Telmisartan+Bemithyl 3+200, Telmisartan+Repirinast 3+30, Cenicriviroc 40, Bromantane 40

Structure (SMILES)	Mean body weight change, comparison with control groups, in words [1]	Kidney fibrosis / Histology Score, significance and comparison in words [2]	Level of kidney fibrosis / histology score compared to vehicle or other agents, in words ([3]; Example 2)	Histology Score [3, 5]	Reduction of fibrosis (%) (versus vehicle) [3, 5]	Level of kidney fibrosis compared to vehicle, in words ([3]; Example 2, Repirinast 90 mg/kg PO QD)	Histology Score ([3]; Repirinast 90 mg/kg)	Reduction of fibrosis (%) (versus vehicle) ([3]; Repirinast 90 mg/kg)	Disparity in weight between ligated and non-ligated kidney, in words [4]
CCSc1nc2ccccc2[nH]1 [Bemithyl, 2-Ethylsulfanyl-1H-benzoimidazole]	even greater than that of the sham surgery control group; also recorded: appeared to reverse the negative effects of UUO on body weight gain	decreased in comparison to the positive control treatment group; also recorded: significant reductions in kidney fibrosis; also recorded: significant improvement in kidney fibrosis	significantly reduce the level of kidney fibrosis compared to vehicle; also recorded: significant improvement in kidney fibrosis	1.15**	52				
Brc1ccc(NC2C3CC4CC(C3)CC2C4)cc1 (stereo not drawn) [Bromantane, N-(4-Bromophenyl)adamantan-2-amine]	comparable to that of the surgery vehicle control group		significantly reduce the level of kidney fibrosis compared to vehicle; also recorded: greatest numerical reduction in the histology score; also recorded: superior to both Telmisartan; also recorded: significant improvement in kidney fibrosis; also recorded: highest reductions in both fibrosis and BUN levels	1.02*#	58				
Cc1ccc2c([nH]c(=O)c3c(=O)cc(C(=O)OCCC(C)C)oc32)c1C [Repirinast, 3-methylbutyl 7,8-dimethyl-4,5-dioxo-5,6-dihydro-4H-pyrano[3,2-c]quinoline-2-carboxylate]	greater decrease in body weight		statistically insignificant improvements	1.90	21	significantly reduce the level of kidney fibrosis compared to vehicle; also recorded: significant improvement in kidney fibrosis	1.19*#	51	
CCCc1nc2c(C)cc(-c3nc4ccccc4n3C)cc2n1Cc1ccc(-c2ccccc2C(=O)O)cc1 [Telmisartan, 2-(4-{[4-Methyl-6-(1-methyl-1H-1,3-benzodiazol-2-yl)-2-propyl-1H-1,3-benzodiazol-1-yl]methyl}phenyl)benzoic acid]		significant reduction; also recorded: reduction in BUN levels and fibrosis	statistically insignificant improvements; also recorded: did not show significant reductions	1.62*#	33				greatest numerical reduction in the disparity between the two kidneys; also recorded: appeared to reduce the disparity in kidney size
